Reference: patent publication US20220233708A1, “ANTIBODY-DRUG CONJUGATE, INTERMEDIATE THEREOF, PREPARATION METHOD THEREFOR AND APPLICATION THEREOF” (priority 2019, published 2022)
Like-named read-outs stand apart in the source and are kept apart here. Starred links: 1 amine or outer side, 2 acyl side, 3 side chain; linkers in the order of their positions; H or OH if unused. Non-standard residues stand in square brackets, D forms with d. Residues, ends and D or L forms follow the SMILES beside them. *: point of attachment. Exatecan = CC[C@@]1(O)C(=O)OCc2c1cc1n(c2=O)Cc2c-1nc1cc(F)c(C)c3c1c2[C@@H](N*)CC3; Hexanoyl(6-maleimido) = O=C1C=CC(=O)N1CCCCCC(=O)*; NHCH2OCH2CO = O=C(COCN[*:1])[*:2]

What was measured:
anti-B7-H3 antibody P2E5 = experiment: Coupling of linker-drug conjugates with P2E5; format: physicochemical; details: coupling with P2E5, highest DAR (excessive coupling)
Experimental: (§1) The anti-B7-H3 antibody P2E5, anti-Claudin18.2 antibody IMAB362, and anti-HER2 antibody Trastuzumab (concentration was 15 mg/mL) were replaced into 50 mM PB/1.0 mM EDTA buffer (pH 7.0) by a G25 desalting column, respectively. 12 equivalents of TECP was added and the mixture was stirred at 37° C. for 2 hours to fully open the disulfide bonds between the antibody chains. Then phosphoric acid was used to adjust the pH of the reduced antibody solution to 6.0, and the temperature of the water bath was lowered to 25° C. for coupling reaction. […] After the reaction was completed, the sample was filtered with a 0.22 μm membrane. Uncoupled small molecules were purified and removed by a tangential flow ultrafiltration system. The buffer was 50 mM PB/1.0 mM EDTA solution (pH 6.0). After purification, sucrose (final concentration was 6%) was added, and the mixture was stored in a refrigerator at −20° C. The UV method was used to measure the absorbance values at 280 nm and 370 nm respectively, and the DAR value was calculated.

[1] = system: anti-Claudin18.2 antibody IMAB362; experiment: Coupling of linker-drug conjugates with IMAB362; format: physicochemical; details: coupling with IMAB362, highest DAR (excessive coupling)
Experimental: as §1

[2] = system: anti-HER2 antibody Trastuzumab; experiment: Coupling of linker-drug conjugates with Trastuzumab; format: physicochemical; details: highest DAR (excessive coupling)
Experimental: as §1

other antibodies = experiment: Coupling of linker-drug conjugates with other / different antibodies; format: physicochemical; details: coupled with other / different antibodies
cathepsin B = cathepsin B (Homo sapiens, UniProt P07858); experiment: In vitro enzyme cleavage experiment of linker-drug conjugates; format: in vitro ADME; details: pH 5.0 to pH 7.0
Experimental: Linker-drug conjugates (LE14 and GGFG-Dxd) and cathepsin B were incubated in three different pH (5.0, 6.0, 7.0) buffers, and samples were taken at different time points into the high performance liquid chromatography-mass spectrometer. The release percentage of the drug was determined by external standard method (with Dxd as the external standard).

NCI-N87 cell line = experiment: Killing activity on NCI-N87 before and after enzyme cleavage by cathepsin B system; format: cell-based, human; details: NCI-N87, 144 hours
Excerpt: The NCI-N87 cell line was selected as the experimental cell line.

SMILES	Ratio of aggregates (anti-B7-H3 antibody P2E5)	Whether precipitation (anti-B7-H3 antibody P2E5)	Ratio of aggregates [1]	Whether precipitation [1]	Ratio of aggregates [2]	Whether precipitation [2]	Precipitation (in words) (other antibodies)	Ratio of aggregates (in words) (other antibodies)	Enzyme cleavage speed (in words) (cathepsin B)	IC50 (NCI-N87 cell line; after cathepsin B system pH 5.0, 37° C., 4 hours, read-out: IC50 (Based on SN-38 equivalent), After enzyme cleavage)	IC50 (NCI-N87 cell line; before cathepsin B cleavage, read-out: IC50 (Based on SN-38 equivalent), Before enzyme cleavage)
CC[C@@]1(O)C(=O)OCc2c1cc1n(c2=O)Cc2c-1nc1cc(F)c(C)c3c1c2[C@@H](NC(=O)COCNC(=O)CNC(=O)[C@H](Cc1ccccc1)NC(=O)CNC(=O)CNC(=O)CCCCCN1C(=O)C=CC1=O)CC3 [GGFG-Dxd, reference compound] ({Hexanoyl(6-maleimido)}-GGFG[NHCH2OCH2CO]-Exatecan)	20%	produced precipitation	35%	produced precipitation	0.1%	did not produce precipitation and No	precipitation would be produced	high	slower enzyme cleavage speed	–	–
CCc1c2c(nc3ccc(O)cc13)-c1cc3c(c(=O)n1C2)COC(=O)[C@]3(O)CC [SN38, 7-ethyl-10-hydroxycamptothecin]	–	–	–	–	–	–	–	–	–	6.85 nM	6.47 nM
